# Read-outs that look alike come from different tables or passages of the source.
# What was measured:
# [1] = system: Huh7.5-J6/JFH1 cells; assay: FACS analysis of LD-positive (BODIPY) J6/JFH1 cells; type: cell-based; settings: 8 μM, 72 h, with BODIPY; DMSO 78.2%
# Protocol: Huh7.5-J6/JFH1 cells were plated onto a 10 cc plate (Corning) and supplemented with either DMSO or 8 μM of 10j for 72 h. Then, Huh7.5-J6/JFH1 cells were fixed by using 4% paraformaldehyde for 10 min and permeabilized using 0.1% saponin in PBS for 20 min. Huh7.5-J6/JFH1 cells were stained with 0.001% BODIPY 493/503 D3922 (Invitrogen) in saponin for 1 h at 4 °C. The FACSAriaIII (BD Biosciences, Franklin Lakes, NJ, USA) was used for the flow cytometric analysis as previously described.
# [2] = system: HCV NS3 (Huh7.5-J6/JFH1, genotype 2a); assay: western blot of HCV NS3 protein in Huh7.5-J6/JFH1 cells
# Protocol: Due to the tight coupling of viral genome replication to its protein expression, inhibition of viral RNA genome replication leads to a subsequent reduction of viral protein expression.
# (A) Dose-dependent western blot analysis of Huh7.5-J6/JFH1 cells treated with increasing concentrations of 10j for 72 h by measuring protein expression levels of HCV NS3 relative to the β-actin. Daclatasvir, an NS5A inhibitor was used as a positive control. (B) Time-dependent western blot analysis of J6/JFH1 RNA-transfected Huh7.5 cells treated with 8 μM of 10j for increasing periods of time analyzed by measuring protein expression levels of HCV NS3 relative to the β-actin. (C,D) Same experiments were performed as in (A,B) to study effects of 10j on the expression levels of the NS5A protein of Huh7.5-Bart79I cells in a dose- as well as time-dependent manners.
# Western blot analysis of Huh7.5-J6/JFH1 or Bart79I cells treated with 10j was conducted as previously described. Relative amounts of HNF4α proteins were quantified by using an HNF4α mouse monoclonal antibody (M04), clone 4E2 (Abnova) with the dilution of 1:1000.
# [3] = MTT-based cell viability assay (EZ-CYTOX); settings: human
# Protocol: To order to study impacts of DGAT inhibitors on HCV genome replication independently of the particle production, we decided to examine effects of these twelve DGAT inhibitors on the levels of viral RNA genome and cell viability in parallel. […] Then, we treated them with an increasing concentration of each DGAT inhibitor. Then, luciferase and MTT-based cell viability assays were performed to determine EC50 and CC50 (cytotoxic concentration required to kill 50% of treated cells) values, respectively.
# Cell viability was measured with EZ-CYTOX (10% tetrazolium salt; Dogen, Gyeonggi-do, Korea) as described previously. Anti-HCV replication analysis using a luciferase assay was conducted as previously described.
# [4] = system: Huh7.5-J6/JFH1 cells; assay: immunofluorescence of dsRNA (J2 antibody) and LD (Oil-Red-O) in Huh7.5-J6/JFH1 cells; type: cell-based, hepatitis C virus; settings: increasing concentrations, 72 h
# Protocol: They were treated with a series of increasing concentrations of 10j for 72 h. […] Since double-stranded (ds) RNAs were regarded as a genuine marker for endogenous viral RNA synthesis due to their roles as intermediates during viral RNA replication, we wished to test effect of 10j on expression and localization of the viral dsRNAs. For this purpose, Huh7.5-J6/JFH1 cells were treated with a series of increasing concentrations of 10j for 72 h. Then, dsRNAs were visualized by using a dsRNA-specific J2 antibody. […] To study effects of 10j on localization of LDs in parallel, LDs were also co-stained in an Oil-Red-O (ORO) dye.
# Immunofluorescence analysis of Huh7.5-J6/JFH1 or Huh7.5-JFH1-5A-GFP cells in the presence of 10j was conducted as previously described [35]. Fluorescence were examined and captured by Nikon confocal laser scanning microscopic system. LD content was quantified using the ImageJ program.
# [5] = system: HNF4α; assay: HNF4α western blot in Huh7.5-J6/JFH1 cells; type: cell-based; settings: up to 10 μM, 72 h
# From the text: Since DGATs play an important role in maintaining liver-likeness in hepatocytes, the antiviral effect of 10j might be due to mere loss of this liver-specific character. […] In addition, HNF4α was also reported to be reduced in DGAT1-silenced cell lines. Therefore, we wished to test effects of 10j on HNF4α.
# [6] = system: HepG2 cells; design: method as in PMID 23242135; settings: [14C] glycerol as substrate; cited from earlier work
# [7] = biological target: T1, DGAT-1 (Homo sapiens, UniProt O75907); assay: DGAT-1 in vitro assay, membrane fractions of DGAT-1-transfected 293T cells, NBD-palmitoyl CoA, TLC; type: biochemical
# T1 construct: expressed in transfected cells; host or cells: 293T cells (membrane fraction)
# T1 sequence (O75907 1-488): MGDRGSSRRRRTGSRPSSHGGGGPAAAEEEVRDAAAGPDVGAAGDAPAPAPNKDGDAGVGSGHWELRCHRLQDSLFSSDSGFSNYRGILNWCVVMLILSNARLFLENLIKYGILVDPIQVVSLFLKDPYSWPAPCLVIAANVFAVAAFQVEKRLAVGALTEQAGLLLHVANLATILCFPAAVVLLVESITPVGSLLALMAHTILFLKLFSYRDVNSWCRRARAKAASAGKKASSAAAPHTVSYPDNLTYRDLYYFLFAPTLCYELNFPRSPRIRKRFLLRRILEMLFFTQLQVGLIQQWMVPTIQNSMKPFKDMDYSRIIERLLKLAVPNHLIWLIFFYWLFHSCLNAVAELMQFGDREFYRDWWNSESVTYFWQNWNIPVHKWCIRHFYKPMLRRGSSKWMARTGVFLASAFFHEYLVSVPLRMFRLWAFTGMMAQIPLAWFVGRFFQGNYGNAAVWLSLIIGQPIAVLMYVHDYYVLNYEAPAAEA
# Protocol: pcDNA3.1-DGAT1 plasmid was transfected into 293T cells by using a lipofectamine 2000 transfection reagent (Invitrogen) as described by the manufacturer. At 24 h after transfection, transfected cells were harvested and cells were resuspended with 500 μL of 50 mM Tris-HCL/250 mM sucrose. Resuspended cells were disrupted by 15 passages through a 27-gauge needle and centrifugation at 600× g for 5 min. The supernatant was ultracentrifuged at […] for 30 min and the supernatant was discarded. The pellets were resuspended in a total of 500 μL of 50 mM ice-cold Tris-HCl/250 mM sucrose. Then, a master mix containing 20 μL of 1 M-Tris-HCl, 4 μL of 1 M MgCl2, 10 μL of 4 mM DOG in acetone, 10 μL of 12 mg/mL BSA and 10 μL of 500 μM NBD-palmitoyl CoA in 20 mM Tris was prepared and incubated at 37 °C for 2 min. Also, 50 μg total membrane proteins were incubated with 10j and A922500 at 37 °C for 1 h. Extracted proteins were added into master mix and incubated at 37 °C for 10 min. The reaction was terminated by adding 4 mL CHCl3/methanol (2:1, v/v). Samples were mixed by vortexing and 800 μL of water was added and remixed. Samples were allowed to sit at room temperature for 1 h. […] Plate was allowed to air dry for 1 h before quantification of reaction products. The synthesized TG was determined by the ChemiDoc imaging system (Bio-Rad, Hércules, CA, USA).
# [8] = design: method as in PMID 23141914; settings: cited from earlier work
smiles,measurement,setting,value
"O=C(NCc1ccco1)c1ccc2[nH]c(COc3ccc(C45CC6CC(CC(C6)C4)C5)cc3)nc2c1 [10j, 2-{[4-(adamant-1yl)phenoxy]methyl)-N-(furan-2-ylmethyl)-1H-benzo[d]imidazole-5-carboxamide]",relative number of LD-positive J6/JFH1 cells,[1],38.6%
same,EC50,"[2]; Hepatitis C virus, GETYPE2A, 72 h, read-out: concentration required for reducing 50% of HCV protein expression (EC50)",3.6 µM
same,time required for reducing 50% of HCV protein expression (T1/2),"[2]; genotype 2a, 10 μM of 10j, 8 μM (figure legend)",37.8 h
same,CC50,[3],38.9 µM
same,amount of dsRNAs,[4],significantly reduced
same,expression level of total LDs (Oil-Red-O),[4],dose-dependent reduction
same,expression levels of HNF4α,[5],remained unaltered
same,"TG % (10 μM in HepG2), relative [14C] triglyceride percentage",[6],45.0%
same,IC50,"[7]; DGAT-1 membrane fractions from 293T cells, read-out: IC50, in vitro synthesis of TG by DGAT-1",17.4 µM
same,IC50,"[7]; Table 2 and Figure 6E, read-out: IC50 required for inhibition of the enzymatic DGAT activities in vitro (summary)",> 5 µM
same,fat tissues,"[8]; mice fed with high-fat diet, versus control mice",significant decrease
same,high-density lipoprotein-cholesterol,[8]; mice,significant increase
same,"total TG, total cholesterol and low-density lipoprotein cholesterol in the blood",[8]; mice,decreased levels

# Source: publication PMC6222871, “Suppression of Hepatitis C Virus Genome Replication and Particle Production by a Novel Diacylglycerol Acyltransferases Inhibitor” (Molecules : A Journal of Synthetic Chemistry and Natural …, 2018)
